# Measurements from patent EP4803080A1, “METHOD FOR TREATING LEUKEMIA” (Shenzhen TargetRx Co., Ltd., priority 2023, dated 2025).
# Like-named read-outs stand apart in the source and are kept apart here.
# Legend:
# Ba/F3 BCR-ABL1 T315M = test: Cell growth inhibition activity test, single agents and combinations (CellTiter-Glo, Chou-Talalay); type: cell-based, mouse; conditions: Mus musculus, BaF3, 72 h, single agent; T315M; 72 hours; read-out: IC50
# Protocol: (§1) A series of cell lines expressing BCR-ABL1 single mutations and compound mutations were constructed based on the Ba/F3 mouse pro-B cell line.
# (§2) This assay utilized the CellTiter-Glo (CTG) kit provided by Promega, which is a homogeneous method for cell viability detection, measuring the viability of cultured cells by quantifying ATP. Cells were seeded in 96-well plates and treated with different concentrations of test substances. […] At the end of the treatment, CTG reagent (CellTiter-Glo kit) was added according to the manufacturer's instructions to detect cell viability values. Plates were read on a microplate reader (Biotek cytation 3.0). IC50 values were calculated using GraphPad Prism 7.0 software.
# [1] = tested on: Ba/F3 BCR-ABL1 Y253H/T315I; test: as above; type: cell-based, mouse; conditions: BCR-ABL1 Y253H/T315I, read-out: IC50^I1
# Protocol: as §1, §2
# [2] = tested on: CML-AP with T315I mutation; test: Phase I dose escalation and dose expansion clinical trial: efficacy in CML-AP subjects with T315I mutation; type: in vivo, humans
# Excerpt: This study is a single-arm, open-label, dose-escalation and dose-expansion Phase I clinical trial.
# The dose-escalation phase of this trial consists of about 8 dose groups, with oral administration under fasting conditions. Subjects in all dose groups will receive a single dose on Day 1 (D1), followed by pharmacokinetic (PK) and tolerability observations. […] After entering the multiple-dose period, subjects in the first dose group will initially receive twice-daily (BID) dosing (if PK data from the single-dose period are available, the dosing frequency during the multiple-dose period may be adjusted based on the PK data). The dosing frequency for subjects in subsequent dose groups after entering the multiple-dose period will be determined based on available PK and tolerability data. Throughout the trial, dosing frequency for all subjects may be adjusted based on continuously updated safety and PK data.
# A continuous reassessment method (CRM) based on the principle of the escalation with overdose control (EWOC) design will be used to recommend the next specific dose for each dose escalation, thereby completing dose escalation and determining the maximum tolerated dose (MTD). If both the investigator and sponsor believe that higher dose groups may offer better efficacy and manageable safety, the EWOC-based CRM method may be used to explore higher doses. All enrolled subjects will receive long-term treatment with the test drug and undergo evaluations for safety, tolerability, and preliminary efficacy.
# After obtaining certain research data from the dose-escalation phase, the investigator may comprehensively consider safety, efficacy, and other information to decide whether to enroll additional subjects at the MTD and/or lower dose levels to determine the recommended Phase II dose (RP2D). Two to four suitable dosing regimens will be selected for expansion in the target population (including subjects enrolled at the target dose levels during the escalation phase).
# A total of 8 dose groups were established: 10 mg bid, 20 mg bid, 40 mg bid, 80 mg bid, 40 mg qd, 80 mg qd, 160 mg qd, and 240 mg qd.
# The dose expansion phase was conducted in the following 3 cohorts: • Cohort 1: Subjects with chronic phase (CP) chronic myeloid leukemia (CML) who had previously received at least ≥2 different TKIs and were T315I-negative. A total of 3 dose groups were established: 40 mg qd, 80 mg qd, and 240 mg qd; • Cohort 2: Subjects with chronic phase (CP) chronic myeloid leukemia (CML) who have previously received ≥1 TKI and were T315I-positive. A total of 2 dose groups were established: 40 mg qd and 240 mg qd; • Cohort 3: Subjects with accelerated phase (AP) chronic myeloid leukemia (CML) who have previously received ≥1 TKI, regardless of T315I positivity. A total of 1 dose group was established: 240 mg qd.
# SUP-B15 cells = test: Efficacy study in the SUP-B15 subcutaneous xenograft model; type: in vivo; conditions: for TGI (%): after 21 days of administration
# Protocol: SUP-B15 cells, a Philadelphia chromosome-positive acute lymphoblastic leukemia cell line, were cultured in vitro using IMDM medium supplemented with 20% fetal bovine serum. When the cell count reached the required level, the cells were harvested, counted, and inoculated.
# Animals: NCG mice, female, aged 6-8 weeks, weighing 18-22 grams. A total of 35 mice (including 15 spare mice) were used. The mice were provided by Jiangsu GemPharmatech Co., Ltd. or other qualified suppliers.
# Tumor inoculation: 0.1 mL (10×10^6 cells) SUP-B15 cells and 0.1 mL Matrigel (total volume 0.2 mL) were mixed thoroughly and subcutaneously inoculated into the right back of each mouse.
# Animal grouping and dosing: Grouping and dosing began when the average tumor volume reached 150-200 mm^3.
# Animal Grouping: Animals were weighed and tumor volumes were measured prior to drug administration. Grouping was performed randomly based on tumor volume.
# Observation: Daily monitoring of animal health status and mortality, routine checks include observing tumor growth and the impact of drug treatment on daily behavioral performance such as activity levels, food and water intake, weight changes (measured twice a week or every other day), external signs, or other abnormalities. The number of animal deaths and side effects within each group based on the number of animals in each group were recorded.
# Test indicators: The test indicators were to examine whether tumor growth is inhibited, delayed, or cured. Tumor diameter was measured three times a week using a vernier caliper. The formula for calculating tumor volume was: V = 0.5a × b^2, where a and b represent the long and short diameters of the tumor, respectively.
# The antitumor efficacy of the compounds was evaluated using TGI (%) or the relative tumor proliferation rate T/C (%). TGI (%) reflects the tumor growth inhibition rate.
# Relative Tumor Proliferation Rate T/C (%): The calculation formula is as follows: T/C % = TRTV / CRTV × 100% (TRTV: treatment group RTV; CRTV: negative control group RTV). The relative tumor volume (RTV) is calculated based on tumor measurement results, with the formula RTV = Vt / V0, where V0 is the average tumor volume measured at the time of grouping (i.e., d0), and Vt is the average tumor volume at a specific measurement time. TRTV and CRTV use data from the same day.
# At the end of the test, tumor weight will be measured, and the Tweight/Cweight percentage will be calculated, where Tweight and Cweight represent the tumor weights of the treatment group and the vehicle control group, respectively.
# Data analysis: T-test is used for comparisons between two groups. One-way ANOVA is used for comparisons among three or more groups. […] All data analyses are performed using SPSS 17.0. A p < 0.05 is considered statistically significant.
# [3] = CML-AP and T315I mutation, failed or intolerant to third-generation or later TKI therapy
# [4] = CML-AP and T315I mutation, failed or intolerant to third-generation or later TKI therapy, 12 evaluable
# [5] = CML-AP and T315I mutation, failed or intolerant to third-generation or later TKI therapy, Kaplan-Meier method
# [6] = CML-AP subjects with T315I mutation, as of June 2, 2024
structure (smiles),measurement,setting,value
"O=C(Nc1ccc(OC(F)(F)Cl)cc1)c1cnc(N2CC[C@@H](F)C2)c(-c2cnccn2)c1 [Compound A, (R)-N-(4-(chlorodifluoromethoxy)phenyl)-6-(3-fluoropyrrolidin-1-yl)-5-(pyrazin-2-yl)nicotinamide]",IC50,Ba/F3 BCR-ABL1 T315M,> 1000 nM
same,IC50,[1]; IC50 of Compound A (I1) in Combination with olverembatinib (I2),65.3 nM
same,IC50,[1]; IC50 of Compound A (I1) in Combination with ponatinib (I2),166 nM
same,IC50,"[1]; Mus musculus, BaF3, 72 h, Monotherapy (Table 12)",12300 nM
same,median EFS,[2]; [3],5.55 months
same,median PFS,[2]; [3],not reached
same,median duration of MaHR response,[2]; [3],11.93 months
same,median time to achieve CCyR,[2]; [3],"4.19 (2.76, 5.62) months"
same,median time to achieve MCyR,[2]; [3],"2.69 (2.69, 2.76) months"
same,CCyR,[2]; [4],16.7%
same,MCyR,[2]; [4],25.0%
same,MMR,[2]; [4],8.3%
same,MaHR,"[2]; CML-AP and T315I mutation, failed or intolerant to third-generation or later TKI therapy, 13 evaluable",76.9%
same,12-month EFS rate,[2]; [5],18.0%
same,12-month PFS rate,[2]; [5],75.8%
same,18-month cumulative incidence rate of CCyR,[2]; [6],30%
same,18-month cumulative incidence rate of MCyR,[2]; [6],36%
same,18-month cumulative incidence rate of MMR,[2]; [6],15%
same,TGI (%),SUP-B15 cells; 5 mg/kg p.o. qd,119.5%
same,TGI (%),SUP-B15 cells; 15 mg/kg p.o. qd,124.7%
same,TGI (%),SUP-B15 cells; 45 mg/kg p.o. qd,125.6%
same,weight loss,"SUP-B15 cells; any treatment group (5, 15, 45 mg/kg p.o. qd × 3 weeks)",No significant weight loss
